Reference: patent publication US20220249525A1, “Fatty Acid Compounds for Prevention and Treatment of Neurodegenerative Disorders” (T OMEGA AS, priority 2019, published 2022)

How the values were obtained:
Assay type in all cases: cell-based
[1] = system: HCC827 cells; assay: Resazurin conversion cell viability/proliferation assay in HCC827 cells; details: for overall effects on cell viability and mitochondrial function (summary): cultured cells, relatively high dosage
Experimental: (§1) Non-small cell lung cancer cells, HCC827 (ATCC) were cultured in RPMI-1640 Glutamax medium (Sigma-Aldrich St. Louis, Mo., USA), under conventional culture conditions. Media was supplemented with 10% Fetal Bovine Serum (FBS), 1% glutamine and 1% streptomycin/penicillin (Sigma-Aldrich). HeLaNRF1/c4 reporter cells were cultured in Dulbecco's Modified Eagle's Medium (DMEM) supplemented with 10% FBS, 2 mM L-Glutamine, 100 u/ml penicillin/streptomycin (Sigma-Aldrich,). Incubation was done at 37° C. in 5% CO2.
(§2) Cell viability/proliferation was determined by the resazurin conversion assay. A total of 4000 cells were seeded in each of the 96-well plates in 100 μl of medium. After 3 hours of incubation, 100 μl of fresh medium with respective concentration of the desired compound or controls were added. Resazurin solution (Sigma-Aldrich) was added (10%, v/v in PBS) after 1 or 3 day treatment, followed by 3 hour incubation at 37° C. and 5% CO2. Resazurin fluorescence (excitation, 540 nm; emission, 590 nm) was measured and measurements were corrected for background signals. […] Relative viability was calculated from percent fluorescence relative to DMSO-treated control wells.

[2] = system: HeLaNRF1/c4 reporter cells; assay: Resazurin conversion assay in HeLaNRF1/c4 reporter cells; details: test compounds 30 μM and 60 μM, long treatment
Experimental: as §1, §2
In order to investigate if some of the compounds induce metabolic adaptations involving mitochondrial biogenesis, we employed the HeLaNRF1/c4 reporter cells in which activation of the transcription factor NRF1 triggers expression of GFP. Since adaptations of mitochondrial biogenesis are known to require some days to develop, we used a relatively low dosage (30 μM and 60 μM) of the compounds, to allow longer treatment period compared to the previous short term experiments.

[3] = system: HeLaNRF1/c4 reporter cells; assay: Gene expression (qPCR) in HeLaNRF1/c4 reporter cells; details: long-term treatment
Experimental: The HeLaNRF1/c4 reporter cells were employed to investigate effects of the modified fatty acids on NRF1-regulated mitochondrial biogenesis. The cells (250,000) were seeded in T75 flasks and incubated for 3 hours to allow attachment. The compounds were dissolved in DMSO and diluted in culture medium to provide the final concentration. DMSO at a concentration equivalent to the highest compound concentration was added to control cultures. Resveratrol and AICAR were used as positive controls. Resveratrol has not previously been tested in this reporter model, but we found it relevant to include it for purposes of experimental and mechanistic comparisons. After 3 days of treatment the media was replaced with fresh media containing the corresponding compound. On day 5, the cells were harvested and the cultures split into three fractions: One fraction was used for detection of mitoGFP expression by flow cytometry, to assess effects on NRF-1 regulated mitochondrial biogenesis. Flow cytometry analysis was performed as previously described. Another fraction was used for extraction of RNA and subsequent gene expression analysis using quantitative PCR (see below). The last fraction was employed to investigate effects on mitochondrial respiratory function by extracellular flux analysis (described above). The experiment was replicated three times.
Total RNA was extracted from harvested cells (RNAeasy kit Qiagen, Hilden, Germany). The RNA content was quantified on Nanodrop 1000 Spectrophotometer (Thermo Scientific). From 1 μg total RNA, cDNA was synthesized using High-Capacity Reverse Transcription Kit (Applied Biosystems, Carlsbad, Calif., US). Gene quantification was done using TaqMan probes for gene expression assays (Applied Biosystems). Probes used were: PGC1α (PPARG coactivator 1α), Hs00173304_m1; HIF1α (hypoxia inducible factor 1α), Hs00153153_m1; PDK1 (pyruvate dehydrogenase kinase 1), Hs01561847_m1; PDK4, (pyruvate dehydrogenase kinase 4), Hs01037712_m1; SIRT4 (sirtuin 4) Hs01015516_g1; ACOX1 (acyl-CoA oxidase 1) Hs01074241_m1; as reference genes, we used; Eukaryotic 18S rRNA Hs99999901_s1; actin beta Hs99999903_m1. Fold change was calculated as geometric mean of ΔΔCt of the two reference genes.

[4] = system: HCC827 cells; assay: Mitochondria respiration assay (OCR, extracellular flux) in HCC827 cells
Experimental: as §1
Mitochondria function was analyzed by measuring oxygen consumption rate (OCR) by extracellular flux analysis in a Seahorse XFe96 instrument (Agilent Seahorse XF Technologies). The measurements were performed in DADA basic media without phenol red, supplemented with L-glutamine (2 mM), pyruvate (2 mM), and sodium chloride, NaCl (32 mM) (Sigma-Aldrich). Respiratory rates were measured following sequential additions of glucose (10 mM), oligomycin, carbonyl cyanide m-chlorophenyl hydrazine (CCCP) and a mixture of rotenone (1 μM) and antimycin A (1 μM). Before carrying out the measurements for each cell model, optimizations were done for; cell number, CCCP, and oligomycin concentrations. For the HCC 827 cell model optimal conditions were; 30,000 cells/well, 0.5 μM CCCP, and 3 μM Oligomycin; and in HeLaNRF1/c4 reporter cell model; 20,000 cells/well, 1 μM CCCP and 3 μM Oligomycin. The OCR measured initially (before any additions) represented the rate ‘basal respiration.’ The addition of ATP synthase inhibitor oligomycin provided oxygen consumption independent of ATP production (‘leak activity’). Maximal respiration (also referred to as ‘respiratory capacity’) was measured upon addition of the uncoupler CCCP. […] After the extracellular flux analysis the analysis plates were washed with Phosphate Buffered Saline (PBS) and frozen at −80° C. The BCA assay (Pierce BCA protein assay kit, Thermo Fisher Scientific, Waltham, Mass. USA) was employed to measure the protein content in the wells. To evaluate the effects of the different treatments, the respiratory rates from compound-treated wells were normalized to protein content, and calculated as percentage of the average respiratory rate of the DMSO-treated control wells. All treatments were performed with 6-8 replicate wells.

Row | SMILES | overall effects on cell viability and mitochondrial function (summary) [1] | resazurin conversion [2] | PDK4 expression [3] | viability (resazurin conversion) ([1]; HCC827 cells, 200 μM) | uncoupled respiratory capacity after CCCP [4] | leak respiration after oligomycin ([4]; 100 μM TTA, 200 μM 2-triple TTA, 30 μM TDG) | basal respiratory rate (OCR) ([4]; compared to control)
1 | CCCC(SCC)C(=O)O (stereo not drawn) [2-(ethylthio) pentanoic acid, 2-(ethylthio)pentanoic acid] | only minor effects |  |  |  |  |  | 
2 | C#CCCCCCCCCCCCNCC(=O)O [2-triple TDG, N-(tridec-12-yn-yl) glycine] | harmful effects were significantly reduced | no significant effect | moderate effect |  |  |  | 
3 | CC#CCCCCCCCCCCCSCC(=O)O [2-triple TTA, 2-(Tetradec-12-yn-1-ylthio)acetic acid] | harmful effects were significantly reduced | little or no effect | moderate effect | moderate antiproliferative effect | stronger dose-dependent effect | significantly increased | 
4 | Oc1ccc(C=Cc2cc(O)cc(O)c2)cc1 [resveratrol, Resveratrol, reference compound] |  | moderate reduction |  |  |  |  | little or no effect
